Key:
[1] = test system: extracellular signal-regulated kinases 1 and 2 (ERK1 and ERK2); assay: Rapid phosphorylation of ERK1 and ERK2 (MAPK) after treatment; format: cell-based; settings: treatment at 1 μM
Text: Western Blot: In all cases, unless otherwise indicated, the western blots were visualized by Bio-Rad digital imaging system and analyzed by Quantity One 1-D analyzing software.

MCF-7 cells = assay: Competition assay of estrone and tamoxifen with CDE1-Ada-DOX uptake in MCF-7 cells (flow cytometry); format: cell-based, human; settings: CDE1-Ada-DOX 2 μM
Experimental: FIG. 17 is a bar graph of the fluorescence intensity for competition assay of CDE1-Ada-DOX at 2 μM in MCF-7 cells in the presence of estrone and tamoxifen at 0.1-10 μM. The results are represented as means±SD from triplicate determinations.
Flow cytometer: In all cases, unless otherwise indicated, the flow cytometric analysis was performed on a FACS (Becton Dickinson Immunocytometry Systems, San Jose, Calif.) by counting 10,000 events.
Moreover, the competition assay of estrone and tamoxifen with CDE1-Ada-DOX in MCF-7 cells was conducted and is shown in FIG. 17. […] Moreover, the ER antagonist-tamoxifen, which is the most prescribed medicine to treat hormone receptor-positive breast cancer, is capable of binding to the estrogen receptor but blocks its activity. […] While for both estrone and tamoxifen, inhibition saturated at concentrations higher than 5 μM. […] Addition of an Ada-DOX guest led to the decomplexation of the estrogen moiety. […] The results are consistent and replicable with the TEM/SEM observations.

SMILES: C[C@]12CC[C@@H]3c4ccc(O)cc4CC[C@H]3[C@@H]1CC[C@@H]2O [E2, 17β-estradiol]
- time of maximum MAPK phosphorylation [1]: 10 min

SMILES: CC/C(=C(\c1ccccc1)c1ccc(OCCN(C)C)cc1)c1ccccc1 [tamoxifen]
- inhibition at 5 µM (MCF-7 cells; Homo sapiens, MCF7, competitor at 5 μM): 80%
- inhibition of CDE1-Ada-DOX uptake (MCF-7 cells; competitor at 1 μM and above (p<0.001)): significantly inhibited

From patent US20180021456A1, “SELF-ASSEMBLED TARGETED INCLUSION COMPLEXES FOR DRUG DELIVERY” (UNIVERSITY OF SOUTH FLORIDA, priority 2015, published 2018)
